Data taken from US20080139457A1, “Therapeutic compositions comprising chorionic gonadotropins and HMG CoA reductase inhibitors” (Virginia Commonwealth University, priority 2005, published 2008).
Entries after “also recorded” stand apart in the source; their conditions may differ.

Key:
LNCaP cells [1] = assay: Apoptosis assay in LNCaP cells (trypan blue exclusion); assay type: cell-based, human; settings: for effect of inhibitor on cell viability / hCG lethality: LY294002 10 μM or AG1478 1 μM 30 min before hCG 2 mU/ml
Procedure: Cell culture. Human prostate cells (PC3 and LCNaP) were purchased from the ATCC were cultured at 37° C. (5% (v/v CO2) in vitro using RPMI supplemented with 10% (v/v) fetal calf serum.
LNCaP cells were cultured as described above. […] The cells were isolated by trypsinization 96 hours after irradiation. The attached and floating cells were combined, and cell viability was determined by trypan blue exclusion assays using a light microscope (*p<0.05 value greater than corresponding vehicle/irradiated+vehicle value; n=3 per data point ±SEM from 3 studies).
LNCaP cells were cultured as described above. […] Caspase inhibitors were re-supplemented every 24 hours. After 96 hours of culture, cell viability numbers were determined MTT assays using a plate reader. The cells were isolated 96 hours after irradiation by trypsinization, the attached and floating cells combined, and cell viability determine by trypan blue exclusion assays using a light microscope.
(2) LNCaP cells were cultured as described above. […] Cells were isolated 96 h after irradiation by trypsinization, the attached and floating cells combined, and cell viability determine by trypan blue exclusion assays using a light microscope.
LNCaP cells were cultured as described above. […] Cells were isolated 96 hours after irradiation by trypsinization, the attached and floating cells combined, and cell viability determine by trypan blue exclusion assays using a light microscope. Cells were then lysed in SDS PAGE sample buffer and equal protein concentrations subjected to SDS PAGE followed by immunoblotting to determine the PARP1 ADP-ribosylation status (activity status) in the presence or absence of PJ-34.
LNCaP cells were cultured as described in Example 1. Twelve hours after plating the cells were transfected using Lipofectamine with either a scrambled siRNA (SCR) or with siRNA molecules to suppress PARP1 or AIF expression (siPARP; siAIF; 10 nM each). […] Cells were isolated 96 hours after irradiation by trypsinization, the attached and floating cells combined, and cell viability determine by trypan blue exclusion assays using a light microscope. Cells were then lysed in SDS PAGE sample buffer and equal protein concentrations subjected to SDS PAGE followed by immunoblotting to determine PARP1 and AIF expression in the presence or absence of siPARP and siAIF, siRNA molecules, respectively. PARP-induced cell death has been linked by some groups to the cytotoxic actions of AIF.
Apoptosis assay. LNCaP cells were cultured as described above. […] Cells were isolated by trypsinization 96 hours after irradiation, the attached and floating cells combined, and cell viability determine by trypan blue exclusion assays using a light microscope.
LNCaP cells were cultured as described above. […] Cells were isolated 96 hours after irradiation by trypsinization, the attached and floating cells combined, and cell viability determine by trypan blue exclusion assays using a light microscope.
LNCaP cells were cultured as described above. Twenty three hours after plating, cells were treated with either the control, vehicle (VEH, DMSO), or farnesyl pyrophosphate (FPP; 1 μM) or geranylgeranyl pyrophosphate (GGPP, 1 μM). […] In some cells the statin may enhance the effects of the chorionic gonadotropin by blocking farnesylation in which case the use of a farnesyl transferase inhibitor will be of further use.
Apoptosis assay in LNCaP Cells. (1) LNCaP cells were cultured as described above. Twelve hours after plating, cells were infected with either empty vector virus (CMV) or with viruses to express dominant negative AKT, dominant negative MEK1, dominant negative IkB, constitutively active AKT, and constitutively active MEK1 at a multiplicity of infection (m.o.i.) of 25. In other parallel plates of cells, 24 h after plating, cells were pretreated 30 minutes prior to any additional manipulation with either vehicle (VEH, DMSO) or a JNK½ inhibitory peptide (JNK-IP, 10 μM).

ERBB1 = assay: Immunoblotting of ERBB1 phosphorylation in LNCaP cells; assay type: cell-based, human; settings: for effect on hCG-induced ERBB1 Y1173 phosphorylation: AG1478 1 μM, pertussis toxin 300 ng/ml, PD184352 1 μM or GM6001 1 μM, 30 min after hCG 2 mU/ml
Procedure: (§1) SDS-PAGE and Immunoblotting. The cells were plated at 5×10^5 cells/cm^2 and treated with drugs at the indicated concentrations and after the indicated time of treatment, lysed in whole-cell lysis buffer (0.5 M Tris-HCl, pH 6.8, 2% SDS, 10% glycerol, 1% β-mercaptoethanol, 0.02% bromophenol blue), and the samples were boiled for 30 minutes. […] All immunoblots were visualized by enhanced chemiluminescence (ECL).
(§2) (2) LNCaP cells were cultured as described above. 12 hours after plating, the cells were treated with vehicle (VEH, PBS) or pertussis toxin (300 ng/ml). 23 hours after plating cells were treated with vehicle (VEH, DMSO) or the ERBB1 inhibitor AG1478 (1 μM).
(3) LNCaP cells were cultured as described above.
(4) LNCaP cells were cultured as described above.

PARP1 = PARP1 ADP-ribosylation status (immunoblot) in LNCaP cells; assay type: cell-based, human; settings: AG1478 5 minutes after or 30 minutes before radiation; hCG 2 mU/ml, 4 Gy
Procedure: as §1
(§3) LNCaP cells were cultured as described above.
as §3

LNCaP cells [2] = assay: Cell survival (colony formation) assay in LNCaP cells; assay type: cell-based, human; settings: AG1478 1 μM removed 96 h after hCG 2 mU/ml and 4 Gy; 28 days
Procedure: as §3
Apoptosis Assay. LNCaP cells were cultured as described above.
as §3

ERK½, JNK½, AKT (S473) = assay: Immunoblotting of phosphorylation status of ERK½, JNK½, AKT in LNCaP cells; assay type: cell-based, human; settings: for effect on hCG-induced ERK½ activation: pertussis toxin 300 ng/ml, AG1478 1 μM or GM6001 1 μM, 30 min after hCG 2 mU/ml
Procedure: SDS-PAGE and Immunoblotting. The cells were plated at 5×10^5 cells/cm^2 and treated with drugs at the indicated concentrations and after the indicated time of treatment, lysed in whole-cell lysis buffer (0.5 M Tris-HCl, pH 6.8, 2% SDS, 10% glycerol, 1% β-mercaptoethanol, 0.02% bromophenol blue), and the samples were boiled for 30 minutes. The boiled samples were loaded onto 10-14% SDS-PAGE and electrophoresis was run overnight. Proteins were electrophoretically transferred onto 0.22 μm nitrocellulose, and immunoblotted with various primary antibodies against different proteins. All immunoblots were visualized by enhanced chemiluminescence (ECL).
(1) LNCaP cells were cultured as described above. […] 0-6 hours after treatment, the cells were isolated, lysed in SDS PAGE sample buffer and equal protein concentrations subjected to SDS PAGE followed by immunoblotting to determine the phosphorylation status (activity status) of ERK½, JNK½, AKT (S473) and the expression level of ERK2 protein.
as §2
(4) LNCaP cells were cultured as described above. […] Thirty minutes after irradiation the cells were isolated, lysed in SDS PAGE sample buffer and equal protein concentrations subjected to SDS PAGE followed by immunoblotting to determine the phosphorylation status (activity status) of ERK½ and ERBB1 Y1068 and the expression levels of ERBB1 and ERK2 proteins.
LNCaP cells were cultured as described above. […] At the indicated times after treatment (12-96 h), the cells were isolated, lysed in SDS PAGE sample buffer and equal protein concentrations subjected to SDS PAGE followed by immunoblotting to determine the phosphorylation status (activity status) of ERK½, JNK½, AKT (S473) and the expression level of ERK2 protein.

[3] = cited from earlier work
LNCaP cells [4] = assay: MTT cell growth assay in LNCaP cells; assay type: cell-based, human; settings: caspase inhibitor 50 μM, radiation 4 Gy, 96 h
Procedure: LNCaP cells were cultured as described above. […] Caspase inhibitors were re-supplemented every 24 hours. After 96 hours of culture, cell viability numbers were determined MTT assays using a plate reader.

For `CC(C)=CCC/C(C)=C/CC/C(C)=C/CC/C(C)=C/COP(=O)(O)OP(=O)(O)O` [GGPP, geranylgeranyl pyrophosphate], the “effect on the lethal interaction between hCG and lovastatin” value (LNCaP cells [1]; FPP 1 μM or GGPP 1 μM, lovastatin 0.6 μM, hCG 2 mU/ml, 96 h) was “abolished the lethal interaction between hCG and lovastatin”.

In the case of `O=C(NOCC1CC1)c1ccc(F)c(F)c1Nc1ccc(I)cc1Cl` [PD184352], the “effect on hCG-induced ERBB1 Y1173 phosphorylation” value (ERBB1) is reported as “abolished” and the “effect on radiation-induced ERBB1 Y1173 phosphorylation” value (ERBB1; PD184352 1 μM, 4 Gy, 30 min after irradiation) is reported as “did not alter radiation-induced ERBB1 Y1173 phosphorylation”.

With `COc1cc2ncnc(Nc3cccc(Cl)c3)c2cc1OC` [AG1478] the “effect on hCG-induced ERBB1 Y1173 phosphorylation” value (ERBB1) was “blocked”, the “effect on PARP activation by combined hCG and radiation” value (PARP1) was “abolished the profound activation of PARP caused by combined hCG and radiation treatment” and the “effect of ERBB1 inhibition on cell killing by hCG and radiation (colony formation)” value (LNCaP cells [2]) was “prevented the greater than additive induction of cell killing caused by combined hCG and radiation exposure”. For the same molecule, the “effect of inhibitor on cell viability / hCG lethality” value (LNCaP cells [1]; 96 h) was “did not significantly alter cell viability following hCG exposure” and the “effect on hCG-induced ERK½ activation” value (ERK½, JNK½, AKT (S473)) was “blocked hCG-induced ERK½ activation”.

For pertussis toxin, the “effect on hCG-induced ERBB1 Y1173 phosphorylation” value (ERBB1) was “blocked” and the “effect on hCG-induced ERK½ activation” value (ERK½, JNK½, AKT (S473)) was “suppressed hCG-induced activation of ERK½”.

In the case of `CC[C@H](C)C(=O)O[C@H]1C[C@@H](C)C=C2C=C[C@H](C)[C@H](CC[C@@H]3C[C@@H](O)CC(=O)O3)[C@H]21` [lovastatin], the “enhancement of the lethality of hCG” value (LNCaP cells [1]; lovastatin 0.1-0.6 μM 30 min before hCG 1 or 2 mU/ml, 96 h) is given as “enhanced the lethality of hCG to an extent greater than was observed using a PI3K inhibitor”, the “concentrations achievable in human plasma” value [3] is given as 100 to 600 nM and the “JNK½ activation, combined exposure” value (ERK½, JNK½, AKT (S473); lovastatin 0.6 μM with hCG 2 mU/ml, within 48 hours) is given as “promoted JNK½ activation”. The “hCG induced ERK½ and AKT activation” value (ERK½, JNK½, AKT (S473); lovastatin 0.6 μM, hCG 2 mU/ml, within 48 hours) was “suppressed hCG induced ERK½ and AKT activation” and the “basal AKT activity” value (ERK½, JNK½, AKT (S473); lovastatin 0.6 μM, within 48 hours) was “suppressed basal AKT activity; also recorded: reduced AKT activity”.

In the case of `CN(C)CC(=O)Nc1ccc2[nH]c(=O)c3ccccc3c2c1` [PJ-34], the “effect of PARP inhibition on potentiation of hCG lethality by radiation” value (LNCaP cells [1]; PJ-34 5 μM, hCG 2 mU/ml, 4 Gy, 96 h) is reported as “abolished the potentiation of hCG lethality by radiation”.

With `Cl.O=c1cc(N2CCOCC2)oc2c(-c3ccccc3)cccc12` [LY294002, 2-(4-Morpholinyl)-8-phenyl-4H-1-benzopyran-4-one hydrochloride] the “effect of inhibitor on cell viability / hCG lethality” value (LNCaP cells [1]; 96 h) was “enhanced hCG lethality in LNCaP cells in a greater than additive fashion”.

In the case of `CNC(=O)[C@H](Cc1c[nH]c2ccccc12)NC(=O)[C@@H](CC(=O)NO)CC(C)C` [GM6001], the “effect on hCG-induced ERBB1 Y1173 phosphorylation” value (ERBB1) is reported as “abolisged ERBB1 Y1173 phosphorylation” and the “effect on hCG-induced ERK½ activation” value (ERK½, JNK½, AKT (S473)) is reported as “abolisged ERBB1 Y1173 phosphorylation and ERK½ activation”.

For zVAD, the “effect of caspase inhibitor on lethality of lovastatin and hCG combination” value (LNCaP cells [1]; LEHD 50 μM or zVAD 50 μM, lovastatin 0.6 μM, hCG 2 mU/ml, 96 h) was “reduced the lethality of the lovastatin and hCG combination”, the “effect of caspase inhibitor on cell death by hCG and radiation” value (LNCaP cells [1]; caspase inhibitor 50 μM, hCG 2 mU/ml, 4 Gy, 96 h) was “modestly blunted” and the “protection from toxicity of ionizing radiation in MTT assays” value (LNCaP cells [4]) was “partially protected cells from the toxicity of ionizing radiation”.

In the case of `COC(=O)[C@H](CC(C)C)NC(=O)c1ccc(NC[C@@H](N)CS)cc1-c1ccccc1` [GGTI-286], the “cell killing with hCG when used in place of lovastatin” value (LNCaP cells [1]; GGTI-286 10 μM with hCG) is reported as “Identical data LNCaP cell killing data for hCG and lovastatin exposure were obtained”.
